This note sets out measurements from patent EP3833345B1, “SMALL MOLECULE-INHIBITORS OF 6-PHOSPHOFRUCTO-1-KINASE FOR REDUCING LACTATE GENERATION BY CANCER CELLS” (Kemijski Institut, priority 2018, dated 2020).

One data set concerns MCF-10A cell line. The experiment in a line: lactate excretion by non-tumorigenic MCF-10A cells. It counts as cell-based. The method, then: The effect of Inhibitor No. 3 on lactate excretion was tested also on two non-tumorigenic cell lines. First, fast proliferating human embryonic kidney (HEK 293) cells were assessed for lactate formation in the presence of Inhibitor No. 3. RPMI 1640 GlutaMAX medium (Thermo Fisher) supplemented with 10% FBS was used as a growth medium. […] About 95 mg/L of lactate were detected after 72 hours of incubation by untreated cells (control) and by the cells growing in the presence of Inhibitor No. 3 (Figure 9a). Similar results were recorded also by non-tumorigenic MCF-10A cell line isolated form the epithelial cells of the mammary gland. The cells were cultivated in MEBM medium supplemented by additives that were obtained as a MEGM Kit from Lonza/Clonetics Corporation. Characteristically these cells grew slower than HEK 293 cells with correspondingly slower lactate excretion rate. After 96 hours of incubation, only about 27 mg/L of lactate was detected in the medium. Again, no influence of different concentrations of Inhibitor No. 3 on lactate generation could be observed (Figure 9b).

A further data set concerns Jurkat cells. Briefly: Seahorse XF assay (ECAR and OCR) in Jurkat cells. It counts as cell-based, human. The settings on record: 100 µM added 24 hours before the experiment; treated versus untreated cells. As for the experimental part:
The efficiency of Inhibitors No. 3 and No. 9 was also tested by the determinations of glycolytic capacities in Jurkat cells in the presence and absence of inhibitors. For this purpose, Seahorse XF assay (Agilent Technology) was performed that enables non-destructive measurements of extracellular acidification rate (ECAR) and oxygen consumption rate (OCR) of tested cells. The cells were incubated in […] GlutaMAX medium with 10% FBS and 24 hours before the experiment inhibitors were added (100 µM). Non-adherent Jurkat cells (1×10^6 per mL) were stuck to the bottom of the wells by poly-I-lysine. The experiment was conducted essentially as recommended by Seahorse XF protocol and after 20 minutes of incubation, 1 µM of oligomycin A (ATP synthase inhibitor) and 0,25 µM of Carbonyl cyanide-4-(trifluoromethoxy)phenylhydrazone (FCCP) (mitochondrial oxidative phosphorylation uncoupler) were added to the cells. […] Reduced lactate excretion by the cells treated with both inhibitors might be responsible for reduced ECARs. Although the addition of oligomycin A and FCCP increased the extracellular acidification rate by the cells treated with both inhibitors, similar increase of ECAR was also observed in the untreated cells. […] It implies that inhibited PFK1 enzymes might reduce glycolytic flux and prevent the need for pyruvate reduction into lactate by re-oxidizing redundant cytosolic NADH. Under such conditions pyruvate can enter mitochondria, replenishing tri-carboxylic acids (TCA) cycle and fuelling oxidative respiration.

The subject of data set [1] is COLO 829 cells. The experiment in a line: lactate excretion by COLO 829 cells. It counts as cell-based. The settings on record: inhibitor added 8 hours after inoculation, then at 24-hour intervals; low concentrations (from 10 µM).
Data set [2] deals with T1, modified (47 kDa) 6-phosphofructo-1-kinase (PFK-M), sfPFK-M fragments (Homo sapiens, UniProt P08237).
T1 sequence (P08237 1-443 limits assumed): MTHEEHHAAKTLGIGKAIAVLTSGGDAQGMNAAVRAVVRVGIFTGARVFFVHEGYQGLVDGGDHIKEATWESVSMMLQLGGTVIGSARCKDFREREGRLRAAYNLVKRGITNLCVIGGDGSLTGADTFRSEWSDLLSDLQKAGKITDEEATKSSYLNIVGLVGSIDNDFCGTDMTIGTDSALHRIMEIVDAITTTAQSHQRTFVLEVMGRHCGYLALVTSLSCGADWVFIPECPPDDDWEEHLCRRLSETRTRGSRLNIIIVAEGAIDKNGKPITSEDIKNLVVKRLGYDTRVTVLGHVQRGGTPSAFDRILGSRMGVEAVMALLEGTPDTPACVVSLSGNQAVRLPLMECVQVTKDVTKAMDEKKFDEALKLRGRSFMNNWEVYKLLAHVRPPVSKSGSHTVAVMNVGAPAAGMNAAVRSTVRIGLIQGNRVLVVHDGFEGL
The experiment in a line: in vitro inhibition of purified recombinant modified (cancer-specific) PFK-M fragments.
Method: Initially, all compounds were tested in vitro for inhibition of the purified human native enzyme (85 kDa) and modified cancer-specific shorter fragments (47 kDa) of muscle type PFK-M, followed by measurements of the purified native enzyme (85 kDa) and shorter fragments (70 kDa) of liver type PFK-L isoform.
Selected compounds were tested for in vitro inhibition of isolated recombinant human native and modified PFK-M enzymes.
The yeast transformant encoding the native human PFK-M enzyme was designated as nPFKM strain while transformant encoding cancer specific shorter fragments was designated as sfPFKM strain. […] For the enzymatic measurements, all the substrates (F6P and ATP), auxiliary enzymes, NADH and inhibitors dissolved in DMSO were added first to the buffer with PEG. After thorough mixing of the buffer with all ingredients, the enzymatic reaction started by the insertion of the purified recombinant enzymes.

A further data set deals with MDA-MB-231 cells. The experiment in a line: cytotoxicity in MDA-MB-231 cells (LDH kit). It counts as cell-based. As for the experimental part: (§1) Lactate generation, growth yield and survival under normal and inhibitory conditions of three different tumorigenic cells lines were determined in more detailed measurements. […] Cytotoxicity was measured by the Lactate dehydrogenase (LDH) kit (Roche).
Inhibitors No. 23, 29, 30 and 31 were tested for preventing lactate generation by the MDA-MB-231 cells.

Data set [3] relates to COLO 829 cells. The experiment in a line: cytotoxicity in COLO 829 cells (LDH kit). Type of data set: cell-based. As for the experimental part: as §1
[4] abbreviates: sequential addition at 24-hour intervals, 92 hours, average over medium without and with inhibitor.
[5] abbreviates: single addition, average over control and different concentrations of inhibitor.

What is called IC50 is the point on the concentration scale where inhibition reaches its midpoint. As for `O=C(CSc1nnc(-c2ccc3c(c2)OCO3)o1)Nc1ccon1` [Inhibitor No. 3, 2-[(5-benzo[1,3]dioxol-5-yl-1,3,4-oxadiazol-2-yl)sulfanyl]-N-isoxazol-3-yl-acetamide], the “lactate detected in the medium, MCF-10A” value with MCF-10A cell line (after 96 hours of incubation, no influence of inhibitor concentration) is on record as “about 27 mg/L”. The “influence on lactate generation, MCF-10A” value in the data set on MCF-10A cell line (different concentrations, 96 hours) is “no influence”. Further, in the data set with Jurkat cells, the “ECAR and OCR values prior to the addition of oligomycin A and FCCP” value was “untreated Jurkat cells revealed higher ECAR and OCR values”. Moreover, in the data set on COLO 829 cells [1], the “lactate formation in COLO 829 cells, sequential re-insertion” value is “strong reduction of lactate formation”. Also, the IC50 in data set [2] was approximately 15 µM. For the same compound, the “average percentages of dead cells, MDA-MB-231, sequential re-insertion” value in the data set with MDA-MB-231 cells (setting [4]) is 2,05±0,18%. In addition, the “average percent of dead MDA-MB-231 cells” value in the data set with MDA-MB-231 cells (setting [5]) is given as 7,2±0,47%. For the same compound, the “average percentages of dead cells, COLO 829, sequential re-insertion” value in the data set on COLO 829 cells [3] (setting [4]) is given as 1,95±0,15%. The “average percent of dead COLO 829 cells” value with COLO 829 cells [3] (setting [5]) is 5,01±1,08%.
